Test results from US20080293931A1, “Methods and compositions for the removal of nucleic acid amplification inhibitors” (priority 2006, published 2008).
Where “and” joins values, the source holds several entries; their conditions need not be identical. Equal entries are not always repeated. Structures can show the parent of a compound that is named as a salt. Where two headings read alike, the source gives them in different places.

Assays:
[1] = Humic acid (HA) removal from aqueous commercial HA solutions by PIR compounds, fluorimetric HA determination; conditions: for performance as PIR compound (in words): commercial humic acid solutions
Procedure: Humic solutions were in 1×TAE buffer at RT with pH˜7. […] Samples from PIR experiments utilizing these materials were diluted, using 1×TAE, to concentrations falling within the linear response region representative of the humic material used.
In this study, when samples were interrogated for humic acid concentrations via fluorimetry, known concentrations of commercial humic acids were compared to known concentrations of humic standards.
FIG. 1 compares the HA removal from samples containing DNA of interest to the molar concentration of varied PIR compounds by plotting an HA reduction factor as the initial [HA] divided by [HA] following treatment with PIR compounds. The commercially available PIR kit, from Mo-BIO, is placed on FIG. 1 for comparison and was arbitrarily assigned a molar concentration of 1 for convenience. […] The data shown in FIG. 1 were generated from varied initial [HA], ranging from ˜5,000 to 300,000 mg/L HA. These varied initial [HA] values represent a “worst case” scenario and these are in comparison to initial [HA] in extractions from problematic soils generating humic acid concentrations typically less than 5,000 mg/L.
FIG. 2 plots the data from the same experiments represented in FIG. 1, but applying a different approach for data metric. FIG. 2 plots a dimensionless HA removal efficiency (or efficacy) value versus the decade of dilution necessary for successful PCR. The efficiency of HA removal is defined in equation 1 as the initial [HA] minus the final [HA] divided by the initial [HA]. This is essentially a percent removal approach.
Efficiency=[HA]i−[HA]f/[HA]; (1)
To further discriminate efficiency values greater than 0.99, the efficiency was subtracted from the integer value of 1, and the −log was taken of 1-efficiency to generate a non-negative value indicative of HA removal efficiency with greater level of discrimination and resolution of values with high degrees of HA removal. This is described by equation 2.

[2] = Stability of PIR compound in aqueous solution
[3] = test system: seeded E. coli DNA; test: PCR after PIR treatment of soil extracts (dilution to achieve PCR); conditions: 100 mM PIR; soil extracts (Los Alamos Airport Soil)
[4] = Humic acid removal from soil extracts (Los Alamos Airport Soil) by PIR compounds; conditions: 100 mM PIR, HA 7,600 mg/L
Procedure: Aqueous samples of humic solutions were interrogated via fluorimetry on a Jobin Jvon Spex Fluorolog II with an excitation wavelength of 471 nm, an emission wavelength of 529 nm, with slits @ 10 nm bandpass, pmt bias of 950V, 1 second integration per reading and 10 readings per sample or <0.1% RSD per sample. Humic solutions were in 1×TAE buffer at RT with pH˜7. […] Samples from PIR experiments utilizing these materials were diluted, using 1×TAE, to concentrations falling within the linear response region representative of the humic material used.

[5] = test system: bacterial 16S rDNA
[6] = test system: E. coli DNA; test: PCR of seeded E. coli DNA after PIR treatment of aqueous HA samples (decade of dilution necessary for successful PCR); conditions: PIR 1 M; aqueous humic samples seeded with E. coli DNA; HAi avg 6,500-12,300 depending on compound (Table 6 c2)
Procedure: Consideration of dilution factors for successful PCR must also be reviewed. In untreated soil extracts containing DNA of interest, successful PCR of the extracted DNA may occur when the polymerase inhibitor is diluted sufficiently such that inhibition is suppressed and PCR may occur. Typical values for the dilution decade at which PCR is successful in samples containing humic materials and DNA of interest are often around decade four (1×10^4). Accordingly, a dilution factor of 10,000 would be necessary for successful PCR in a typical soil extract/sample. This magnitude of dilution may also impact PCR sensitivity for DNA/species already present at low concentrations and result in not identifying an organism that was present in the original sample extract.
Using this approach for presenting the HA removal data allows for the determination of a PIR compound's effectiveness for HA removal (ε) and compatibility for application in PCR systems via dilution data for PCR.

[7] = test system: B. anthracis Sterne DNA; conditions: PIR (thiamine) treated; for B. anthracis per rxn: at 1st positive dilution; for 1st DNA dilution with positive PCR: spiked with B. anthracis Sterne DNA
[8] = PIR 1 M, aqueous humic samples seeded with E. coli DNA, HAi avg 6,500-12,300 depending on compound (Table 6 c2)

## O=C(C[n+]1ccsc1)c1ccc([N+](=O)[O-])cc1.[Br-] [PTB-NO2, 4-Nitro-Phenacyl Thiazolium Bromide]
[1]
  performance as PIR compound (in words): did not perform well
[1]; listed as PTB-N
  performance as PIR compound (in words): poor performance
[2]
  stability in aqueous solutions: not stable
[2]; aqueous solutions
  time to orange/red precipitate following dissolution: approximately 1 hour

## Cc1ncc(C[n+]2csc(CCO)c2C)c(N)n1 [THI, Thiamine Hydrochloride]
[3]
  dilution decade at which PCR is achieved, on average: 1.8
[4]
  average efficiency values: 1.4
  average reduction factors: 45
[1]; [8]
  Average Efficiency, ε: 2.13
  Avg Reduction Factor: 258
[5]
  improvement of purity of DNA samples: two orders of magnitude
  increase in purity of soil DNA extract: ≥ 10 fold
[5]; Hydrochloride
  1st DNA dilution with positive PCR: 10^−2 and 10^−1
  DNA dilution with positive PCR: 10^0 and 10^−1
[6]
  Typical dilution decade for PCR: 0
  range of dilutions (dilution decade for PCR): 0-3
[7]; soil “A”
  B. anthracis per rxn: ~10^4 cell equivalents
  1st DNA dilution with positive PCR: 10^0
[7]; soil “B”
  B. anthracis per rxn: ~10^4 cell equivalents
  1st DNA dilution with positive PCR: 10^0
[7]; soil “C”
  B. anthracis per rxn: ~10^4 cell equivalents
  1st DNA dilution with positive PCR: 10^0
